# System: 935938-334-R-J1-PDC spheroids with HUVEC/MSC, viability
# Assay: Anticancer human tumor 935938-334-R-J1-PDC patient-derived small intestine adenocarcinoma cell line growth inhibition [PI3K]
# Settings: for IC50: curve of first compound; for viability, T/C: stronger effect = lower value
# Summary of the method: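 Tumor cells grown as multi-cell spheroids with HUVEC endothelial cells and MSC fibroblast-like stroma were treated with targeted agents combined with inavolisib, alpelisib, duvelisib or copanlisib. Doses fell in half-log steps from near clinical Cmax, else from 10 microM. Viability was measured.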
# [1] = second compound 0.0316 µM, first compound 0.0316 µM
# [2] = second compound 0.0316 µM, first compound 0.1 µM
# [3] = second compound 0.0316 µM, first compound 0.316 µM
# [4] = second compound 0.0316 µM, first compound 1 µM
# [5] = second compound 0.1 µM, first compound 0.0316 µM
# [6] = second compound 0.1 µM, first compound 0.1 µM
# [7] = second compound 0.1 µM, first compound 0.316 µM
# [8] = second compound 0.1 µM, first compound 1 µM
# [9] = second compound 0.316 µM, first compound 0.0316 µM
# [10] = second compound 0.316 µM, first compound 0.1 µM
# [11] = second compound 0.316 µM, first compound 0.316 µM
# [12] = second compound 0.316 µM, first compound 1 µM
# [13] = second compound 1 µM, first compound 0.0316 µM
# [14] = second compound 1 µM, first compound 0.1 µM
# [15] = second compound 1 µM, first compound 0.316 µM
# [16] = second compound 1 µM, first compound 1 µM
# 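Also: compound exposure lasted seven days before viability was read.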
# 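For viability, T/C in this document: percent of vehicle DMSO treated spheroid viability so 100% = untreated.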
structure (smiles),measurement,setting,value
CC(C)NCC(C(=O)N1CCN(c2ncnc3c2C(C)CC3O)CC1)c1ccc(Cl)cc1 (centres undefined) + CC(Nc1ccc2c(c1)OCCn1cc(N3C(=O)OCC3C(F)F)nc1-2)C(N)=O,IC50,second compound 0.00316 µM,1690 nM
same,IC50,second compound 0.01 µM,3320 nM
same,IC50,second compound 0.0316 µM,811 nM
same,IC50,second compound 0.1 µM,651 nM
same,IC50,second compound 0.316 µM,724 nM
same,IC50,second compound 1 µM,328 nM
same,"viability, T/C","second compound 0.00316 µM, first compound 0.0316 µM",76.6%
same,"viability, T/C","second compound 0.00316 µM, first compound 0.1 µM",96.7%
same,"viability, T/C","second compound 0.00316 µM, first compound 0.316 µM",77.9%
same,"viability, T/C","second compound 0.00316 µM, first compound 1 µM",58%
same,"viability, T/C","second compound 0.00316 µM, first compound 3.16 µM",41.5%
same,"viability, T/C","second compound 0.00316 µM, first compound 10 µM",36.1%
same,"viability, T/C","second compound 0.01 µM, first compound 0.0316 µM",47.5%
same,"viability, T/C","second compound 0.01 µM, first compound 0.1 µM",75.7%
same,"viability, T/C","second compound 0.01 µM, first compound 0.316 µM",85%
same,"viability, T/C","second compound 0.01 µM, first compound 1 µM",65.4%
same,"viability, T/C","second compound 0.01 µM, first compound 3.16 µM",51.1%
same,"viability, T/C","second compound 0.01 µM, first compound 10 µM",28.6%
same,"viability, T/C",[1],53.1%
same,"viability, T/C",[2],76.5%
same,"viability, T/C",[3],65.5%
same,"viability, T/C",[4],46.5%
same,"viability, T/C","second compound 0.0316 µM, first compound 3.16 µM",35.3%
same,"viability, T/C","second compound 0.0316 µM, first compound 10 µM",30%
same,"viability, T/C",[5],94.9%
same,"viability, T/C",[6],84.1%
same,"viability, T/C",[7],56.1%
same,"viability, T/C",[8],44%
same,"viability, T/C","second compound 0.1 µM, first compound 3.16 µM",44%
same,"viability, T/C","second compound 0.1 µM, first compound 10 µM",28.3%
same,"viability, T/C",[9],55.5%
same,"viability, T/C",[10],75.7%
same,"viability, T/C",[11],68.3%
same,"viability, T/C",[12],43.6%
same,"viability, T/C","second compound 0.316 µM, first compound 3.16 µM",23.4%
same,"viability, T/C","second compound 0.316 µM, first compound 10 µM",24.8%
same,"viability, T/C",[13],35.1%
same,"viability, T/C",[14],52.9%
same,"viability, T/C",[15],63.5%
same,"viability, T/C",[16],34.1%
same,"viability, T/C","second compound 1 µM, first compound 3.16 µM",19.8%
same,"viability, T/C","second compound 1 µM, first compound 10 µM",28.6%
CCN1CCN(Cc2ccc(Nc3ncc(F)c(-c4cc(F)c5nc(C)n(C(C)C)c5c4)n3)nc2)CC1 + Cc1nc(NC(=O)N2CCCC2C(N)=O)sc1-c1ccnc(C(C)(C)C(F)(F)F)c1,IC50,second compound 0.0316 µM,148 nM
same,IC50,second compound 0.1 µM,43.2 nM
same,IC50,second compound 0.316 µM,55.5 nM
same,IC50,second compound 1 µM,18.8 nM
same,IC50,second compound 3.16 µM,< 3.16 nM
same,IC50,second compound 10 µM,< 3.16 nM
same,"viability, T/C","second compound 0.0316 µM, first compound 0.00316 µM",88.8%
same,"viability, T/C","second compound 0.0316 µM, first compound 0.01 µM",68.9%
same,"viability, T/C",[1],64.3%
same,"viability, T/C",[2],57.2%
same,"viability, T/C",[3],43%
same,"viability, T/C",[4],32.4%
same,"viability, T/C","second compound 0.1 µM, first compound 0.00316 µM",94.5%
same,"viability, T/C","second compound 0.1 µM, first compound 0.01 µM",92.2%
same,"viability, T/C",[5],53.3%
same,"viability, T/C",[6],45.6%
same,"viability, T/C",[7],37.5%
same,"viability, T/C",[8],35.4%
same,"viability, T/C","second compound 0.316 µM, first compound 0.00316 µM",86.6%
same,"viability, T/C","second compound 0.316 µM, first compound 0.01 µM",71.4%
same,"viability, T/C",[9],52.4%
same,"viability, T/C",[10],44.9%
same,"viability, T/C",[11],41.2%
same,"viability, T/C",[12],32.4%
same,"viability, T/C","second compound 1 µM, first compound 0.00316 µM",69.7%
same,"viability, T/C","second compound 1 µM, first compound 0.01 µM",59.2%
same,"viability, T/C",[13],40.8%
same,"viability, T/C",[14],37.7%
same,"viability, T/C",[15],26.1%
same,"viability, T/C",[16],28.3%
same,"viability, T/C","second compound 3.16 µM, first compound 0.00316 µM",41.5%
same,"viability, T/C","second compound 3.16 µM, first compound 0.01 µM",44.6%
same,"viability, T/C","second compound 3.16 µM, first compound 0.0316 µM",42.6%
same,"viability, T/C","second compound 3.16 µM, first compound 0.1 µM",30.7%
same,"viability, T/C","second compound 3.16 µM, first compound 0.316 µM",25.7%
same,"viability, T/C","second compound 3.16 µM, first compound 1 µM",30.1%
same,"viability, T/C","second compound 10 µM, first compound 0.00316 µM",39.2%
same,"viability, T/C","second compound 10 µM, first compound 0.01 µM",44.7%
same,"viability, T/C","second compound 10 µM, first compound 0.0316 µM",34.1%
same,"viability, T/C","second compound 10 µM, first compound 0.1 µM",26.2%
same,"viability, T/C","second compound 10 µM, first compound 0.316 µM",35%
same,"viability, T/C","second compound 10 µM, first compound 1 µM",28.5%

# Reference: PubChem BioAssay AID1963966 (Molecular Pharmacology Branch, DTP, NCI, 2024)
